In patent US11970498B2, “CDK2 inhibitors” (BLUEPRINT MEDICINES CORPORATION, priority 2021, dated 2024):

Experiments:
CDK2/Cyclin E = CDK2/Cyclin E (Homo sapiens, UniProt P24941); assay: CDK2/Cyclin E biochemical phosphorylation assay (Caliper mobility shift); conditions: apparent IC50; 1.0 mM ATP or ATP Km; 1.25 nM enzyme; 25° C.; read-out: CDK2/cyclin E1 IC50
In short: (§1)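 Caliper electrophoretic separation of substrate and phosphopeptide gave apparent IC50s. Enzymes: CDK1/Cyclin B1 GST-tag 1.5 nM, CDK2/Cyclin E 1.25 nM; ATP 1.0 mM or at Km; 7.5 µM FL-peptide; pH 7.5 HEPES buffer, 1% DMSO; room temperature until 10–20% phosphorylated, then EDTA quench.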

CDK1/Cyclin B1, GST-tag = molecular target: T1, CDK1/Cyclin B1, GST-tag (Homo sapiens, UniProt P06493); assay: CDK1/Cyclin B1 biochemical phosphorylation assay (Caliper mobility shift); conditions: apparent IC50; 1.0 mM ATP or ATP Km; 1.5 nM enzyme; 25° C.
T1 construct: GST
In short: as §1

T1 sequence (P06493 whole entry): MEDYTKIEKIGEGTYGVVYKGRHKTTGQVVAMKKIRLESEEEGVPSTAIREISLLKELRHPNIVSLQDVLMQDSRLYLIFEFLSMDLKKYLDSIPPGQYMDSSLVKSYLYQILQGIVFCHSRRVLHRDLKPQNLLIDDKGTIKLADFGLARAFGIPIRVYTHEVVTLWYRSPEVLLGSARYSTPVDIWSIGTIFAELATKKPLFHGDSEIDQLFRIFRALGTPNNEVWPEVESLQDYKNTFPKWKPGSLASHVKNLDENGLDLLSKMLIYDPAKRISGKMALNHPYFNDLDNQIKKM
T1 sequence (P14635 whole entry partner): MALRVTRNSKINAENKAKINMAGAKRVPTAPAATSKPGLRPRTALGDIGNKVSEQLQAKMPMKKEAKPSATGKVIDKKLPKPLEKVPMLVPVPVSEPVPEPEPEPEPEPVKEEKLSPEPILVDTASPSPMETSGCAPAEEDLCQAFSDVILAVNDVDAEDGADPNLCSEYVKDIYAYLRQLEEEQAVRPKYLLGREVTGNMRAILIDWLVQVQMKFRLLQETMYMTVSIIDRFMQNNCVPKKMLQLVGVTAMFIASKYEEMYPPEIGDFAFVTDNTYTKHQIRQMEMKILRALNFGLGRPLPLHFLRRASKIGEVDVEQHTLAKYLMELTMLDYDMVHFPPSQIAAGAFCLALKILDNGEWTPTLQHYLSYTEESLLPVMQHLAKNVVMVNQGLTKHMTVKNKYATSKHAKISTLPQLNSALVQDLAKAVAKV

| IC50 (CDK2/Cyclin E) [nM] | IC50 (CDK1/Cyclin B1, GST-tag) [nM] | SMILES |
| --- | --- | --- |
| ≤ 10 | ≥ 500 | FC(F)Oc1cc(Nc2cnc3cnn(C4CCOCC4)c3n2)n[nH]1 [Example 83, N-(5-(difluoromethoxy)-1H-pyrazol-3-yl)-1-(tetrahydro-2H-pyran-4-yl)-1H-pyrazolo[3,4-b]pyrazin-6-amine] |
| 10 to 20 | ≥ 500 | C[C@@H]([C@H]1CCCOC1)n1ncc2ncc(Nc3cc(OC(F)F)[nH]n3)nc21 (single isomer, unassigned) [Example 216] |
| 10 to 20 | ≥ 500 | COc1cc(Nc2cnc3cnn(C[C@H]4CCCOC4)c3n2)n[nH]1 [Example 140, (R)-N-(5-methoxy-1H-pyrazol-3-yl)-1-((tetrahydro-2H-pyran-3-yl)methyl)-1H-pyrazolo[3,4-b]pyrazin-6-amine] |
| 10 to 20 | ≥ 500 | FC(F)Oc1cc(Nc2cnc3cnn([C@H](c4ccccn4)C(F)F)c3n2)n[nH]1 (single isomer, unassigned) [Example 150, (S)-1-(2,2-difluoro-1-(pyridin-2-yl)ethyl)-N-(5-(difluoromethoxy)-1H-pyrazol-3-yl)-1H-pyrazolo[3,4-b]pyrazin-6-amine or (R)-1-(2,2-difluoro-1-(pyridin-2-yl)ethyl)-N-(5-(difluoromethoxy)-1H-pyrazol-3-yl)-1H-pyrazolo[3,4-b]pyrazin-6-amine] |
| ≤ 10 | ≥ 500 | CC1(Cn2ncc3ncc(Nc4cc(OC(F)F)[nH]n4)nc32)COC1 [Example 119, N-(5-(difluoromethoxy)-1H-pyrazol-3-yl)-1-((3-methyloxetan-3-yl)methyl)-1H-pyrazolo[3,4-b]pyrazin-6-amine] |
| ≤ 10 | ≥ 500 | Fc1nn(Cc2cccnc2)c2nc(Nc3cc(OC(F)F)[nH]n3)cnc12 [Example 120, N-(5-(difluoromethoxy)-1H-pyrazol-3-yl)-3-fluoro-1-(pyridin-3-ylmethyl)-1H-pyrazolo[3,4-b]pyrazin-6-amine] |
| 20 to 30 | ≥ 500 | C[C@H](c1ccccn1)n1ncc2ncc(Nc3cc(OC(F)F)[nH]n3)nc21 [Example 82, (R)-N-(5-(difluoromethoxy)-1H-pyrazol-3-yl)-1-(1-(pyridin-2-yl)ethyl)-1H-pyrazolo[3,4-b]pyrazin-6-amine] |
| 30 to 100 | ≥ 500 | FC(F)Oc1cc(Nc2cnc3cnn(CC45COCC4C5)c3n2)n[nH]1 (stereo not drawn) [Example 221, 1-(3-oxabicyclo[3.1.0]hexan-1-ylmethyl)-N-(5-(difluoromethoxy)-1H-pyrazol-3-yl)-1H-pyrazolo[3,4-b]pyrazin-6-amine] |
| ≤ 10 | ≥ 500 | C[C@@H](O)c1nn([C@@H](C)c2cccnc2)c2nc(Nc3cc(OC(F)F)[nH]n3)cnc12 (single isomer, unassigned) [Example 177, (R)-1-(6-((5-(difluoromethoxy)-1H-pyrazol-3-yl)amino)-1-((S)-1-(pyridin-3-yl)ethyl)-1H-pyrazolo[3,4-b]pyrazin-3-yl)ethan-1-ol or (S)-1-(6-((5-(difluoromethoxy)-1H-pyrazol-3-yl)amino)-1-((S)-1-(pyridin-3-yl)ethyl)-1H-pyrazolo[3,4-b]pyrazin-3-yl)ethan-1-ol] |
| ≤ 10 | 100 to 500 | COc1cc(Nc2cnc3cnn(C(C)c4cccnn4)c3n2)n[nH]1 (single isomer, unassigned) [Example 33, (R)—N-(5-methoxy-1H-pyrazol-3-yl)-1-(1-(pyridazin-3-yl)ethyl)-1H-pyrazolo[3,4-b]pyrazin-6-amine or (S)—N-(5-methoxy-1H-pyrazol-3-yl)-1-(1-(pyridazin-3-yl)ethyl)-1H-pyrazolo[3,4-b]pyrazin-6-amine] |
| ≤ 10 | ≥ 500 | N#Cc1nn(CC2CCOCC2)c2nc(Nc3cc(OC(F)F)[nH]n3)cnc12 [Example 62, 6-((5-(difluoromethoxy)-1H-pyrazol-3-yl)amino)-1-((tetrahydro-2H-pyran-4-yl)methyl)-1H-pyrazolo[3,4-b]pyrazine-3-carbonitrile] |
| 10 to 20 | ≥ 500 | FC(F)Oc1cc(Nc2cnc3cnn(C[C@@H]4CC4(F)F)c3n2)n[nH]1 (single isomer, unassigned) [Example 164, (R)-1-((2,2-difluorocyclopropyl)methyl)-N-(5-(difluoromethoxy)-1H-pyrazol-3-yl)-1H-pyrazolo[3,4-b]pyrazin-6-amine or (S)-1-((2,2-difluorocyclopropyl)methyl)-N-(5-(difluoromethoxy)-1H-pyrazol-3-yl)-1H-pyrazolo[3,4-b]pyrazin-6-amine] |
| 30 to 100 | ≥ 500 | C[C@]1(Cn2ncc3ncc(Nc4cc(OC(F)F)[nH]n4)nc32)CCOC1 (single isomer, unassigned) [Example 165, (R)-N-(5-(difluoromethoxy)-1H-pyrazol-3-yl)-1-((3-methyltetrahydrofuran-3-yl)methyl)-1H-pyrazolo[3,4-b]pyrazin-6-amine or (S)-N-(5-(difluoromethoxy)-1H-pyrazol-3-yl)-1-((3-methyltetrahydrofuran-3-yl)methyl)-1H-pyrazolo[3,4-b]pyrazin-6-amine] |
| 20 to 30 | ≥ 500 | FC(F)Oc1cc(Nc2cnc3cnn(CC4(C(F)F)CCOCC4)c3n2)n[nH]1 [Example 122, N-(5-(difluoromethoxy)-1H-pyrazol-3-yl)-1-((4-(difluoromethyl)tetrahydro-2H-pyran-4-yl)methyl)-1H-pyrazolo[3,4-b]pyrazin-6-amine] |
| ≤ 10 | ≥ 500 | CC[C@@H](c1cccnc1)n1ncc2ncc(Nc3cc(OC(F)F)[nH]n3)nc21 [Example 94, (S)-N-(5-(difluoromethoxy)-1H-pyrazol-3-yl)-1-(1-(pyridin-3-yl)propyl)-1H-pyrazolo[3,4-b]pyrazin-6-amine] |
| ≤ 10 | 100 to 500 | C[C@@H](O)c1nn(CC2CCOCC2)c2nc(Nc3cc(OC(F)F)[nH]n3)cnc12 (single isomer, unassigned) [Example 175, (R)-1-(6-((5-(difluoromethoxy)-1H-pyrazol-3-yl)amino)-1-((tetrahydro-2H-pyran-4-yl)methyl)-1H-pyrazolo[3,4-b]pyrazin-3-yl)ethan-1-ol or (S)-1-(6-((5-(difluoromethoxy)-1H-pyrazol-3-yl)amino)-1-((tetrahydro-2H-pyran-4-yl)methyl)-1H-pyrazolo[3,4-b]pyrazin-3-yl)ethan-1-ol] |
| > 100 | ≥ 500 | COc1cc(Nc2cnc3cnn(C[C@H]4C[C@@H]4C#N)c3n2)n[nH]1 (single isomer, unassigned) [Example 196, (1S,2S)-2-((6-((5-methoxy-1H-pyrazol-3-yl)amino)-1H-pyrazolo[3,4-b]pyrazin-1-yl)methyl)cyclopropane-1-carbonitrile or (1R,2R)-2-((6-((5-methoxy-1H-pyrazol-3-yl)amino)-1H-pyrazolo[3,4-b]pyrazin-1-yl)methyl)cyclopropane-1-carbonitrile] |
| 10 to 20 | ≥ 500 | COc1cc(Nc2cnc3cnn(CC45CCC(CC4)OC5)c3n2)n[nH]1 [Example 136, 1-((2-oxabicyclo[2.2.2]octan-4-yl)methyl)-N-(5-methoxy-1H-pyrazol-3-yl)-1H-pyrazolo[3,4-b]pyrazin-6-amine] |
| ≤ 10 | ≥ 500 | FC(F)Oc1cc(Nc2cnc3cnn(C[C@H]4CCCOC4)c3n2)n[nH]1 (single isomer, unassigned) [Example 141, (R)-N-(5-(difluoromethoxy)-1H-pyrazol-3-yl)-1-((tetrahydro-2H-pyran-3-yl)methyl)-1H-pyrazolo[3,4-b]pyrazin-6-amine or (S)-N-(5-(difluoromethoxy)-1H-pyrazol-3-yl)-1-((tetrahydro-2H-pyran-3-yl)methyl)-1H-pyrazolo[3,4-b]pyrazin-6-amine] |
| 30 to 100 | ≥ 500 | N#CC1(Cn2ncc3ncc(Nc4cc(OC(F)F)[nH]n4)nc32)CCOCC1 [Example 115, 4-((6-((5-(difluoromethoxy)-1H-pyrazol-3-yl)amino)-1H-pyrazolo[3,4-b]pyrazin-1-yl)methyl)tetrahydro-2H-pyran-4-carbonitrile] |
| > 100 | ≥ 500 | C[C@@H]([C@@H]1COCCO1)n1ncc2ncc(Nc3cc(OC(F)F)[nH]n3)nc21 (single isomer, unassigned) [Example 212] |

| SMILES | IC50 (CDK2/Cyclin E) [nM] | IC50 (CDK1/Cyclin B1, GST-tag) [nM] |
| --- | --- | --- |
| C[C@H]([C@@H]1CCOC1)n1ncc2ncc(Nc3cc(OC(F)F)[nH]n3)nc21 (single isomer, unassigned) [Example 11] | 20 to 30 | ≥ 500 |
| FC(F)Oc1cc(Nc2cnc3cnn([C@H](C(F)F)C4CCOCC4)c3n2)n[nH]1 (single isomer, unassigned) [Example 28, (S)-1-(2,2-difluoro-1-(tetrahydro-2H-pyran-4-yl)ethyl)-N-(5-(difluoromethoxy)-1H-pyrazol-3-yl)-1H-pyrazolo[3,4-b]pyrazin-6-amine or (R)-1-(2,2-difluoro-1-(tetrahydro-2H-pyran-4-yl)ethyl)-N-(5-(difluoromethoxy)-1H-pyrazol-3-yl)-1H-pyrazolo[3,4-b]pyrazin-6-amine] | 20 to 30 | ≥ 500 |
| C[C@H](c1cc(F)ccn1)n1ncc2ncc(Nc3cc(OC(F)F)[nH]n3)nc21 (single isomer, unassigned) [Example 14, (R)—N-(5-(difluoromethoxy)-1H-pyrazol-3-yl)-1-(1-(4-fluoropyridin-2-yl)ethyl)-1H-pyrazolo[3,4-b]pyrazin-6-amine or (S)—N-(5-(difluoromethoxy)-1H-pyrazol-3-yl)-1-(1-(4-fluoropyridin-2-yl)ethyl)-1H-pyrazolo[3,4-b]pyrazin-6-amine] | 10 to 20 | ≥ 500 |
